For one compound, Kd results are on record in patent publication US11401260B2, “Biochemical binding of RET9 and VEGFR2 inhibitors” (Kala Pharmaceuticals, Inc., priority 2017, dated 2022).

SMILES strings stand for the structures.

Assay [1] deals with vascular endothelial growth receptor 2 (VEGFR2) (Homo sapiens (Human), UniProt P35968). In words: VEGFR2 competition binding assay (DISCOVERX KINOMESCAN). Conditions: 11-point dose response, 3-fold serial dilution starting at 1 μM. Here is the method:
A competition binding assay ([…]) was used to measure the ability of a compound to compete for binding of an immobilized adenosine triphosphate (ATP) site directed ligand using a DNA-tagged vascular endothelial growth receptor 2 (VEGFR2) as the target. The ability of the test compound to compete with the immobilized ligand was measured using quantitative polymerase chain reaction (qPCR) of the DNA tag (Fabian, M. A. et al., 23 Nature Biotechnology 329-336 (2005); Karaman, M. W. et al., 26 Nature Biotechnology 127-132 (2008)). A VEGFR2 tagged T7 phage strain was prepared in an Escherichia coli (E. coli) derived from the BL21 strain. The E. coli were grown to log-phase, infected with VEGFR2 tagged T7 phage and then incubated with shaking at 32° C. until lysis. The lysate containing the kinase was then centrifuged and filtered to remove cell debris. Affinity resin for the VEGFR2 assay was prepared by treating Streptavidin-coated magnetic beads with a biotinylated small molecule ligand for 30 minutes at room temperature. […] The VEGFR2 concentration in the eluate was measured using qPCR. […] Binding constants were calculated with standard dose-response curve using the Hill equation with Hill slope set to -1. […]

The target of the next assay is RET9 (Homo sapiens (Human), UniProt P07949). The experiment in a line: RET9 competition binding assay (DISCOVERX KINOMESCAN). Here is the method: A competition binding assay ([…]) was used to measure the ability of a compound to compete for binding of an immobilized adenosine triphosphate (ATP) site directed ligand using a DNA-tagged vascular endothelial growth receptor 2 (VEGFR2) as the target. The ability of the test compound to compete with the immobilized ligand was measured using quantitative polymerase chain reaction (qPCR) of the DNA tag (Fabian, M. A. et al., 23 Nature Biotechnology 329-336 (2005); Karaman, M. W. et al., 26 Nature Biotechnology 127-132 (2008)). Similarly, a competition binding assay ([…]) was used to determine the dissociation constant (Kd) of Compound 1 to RET9.
RET9, sequence (P07949 other isoform, or with tags, fused parts or gaps): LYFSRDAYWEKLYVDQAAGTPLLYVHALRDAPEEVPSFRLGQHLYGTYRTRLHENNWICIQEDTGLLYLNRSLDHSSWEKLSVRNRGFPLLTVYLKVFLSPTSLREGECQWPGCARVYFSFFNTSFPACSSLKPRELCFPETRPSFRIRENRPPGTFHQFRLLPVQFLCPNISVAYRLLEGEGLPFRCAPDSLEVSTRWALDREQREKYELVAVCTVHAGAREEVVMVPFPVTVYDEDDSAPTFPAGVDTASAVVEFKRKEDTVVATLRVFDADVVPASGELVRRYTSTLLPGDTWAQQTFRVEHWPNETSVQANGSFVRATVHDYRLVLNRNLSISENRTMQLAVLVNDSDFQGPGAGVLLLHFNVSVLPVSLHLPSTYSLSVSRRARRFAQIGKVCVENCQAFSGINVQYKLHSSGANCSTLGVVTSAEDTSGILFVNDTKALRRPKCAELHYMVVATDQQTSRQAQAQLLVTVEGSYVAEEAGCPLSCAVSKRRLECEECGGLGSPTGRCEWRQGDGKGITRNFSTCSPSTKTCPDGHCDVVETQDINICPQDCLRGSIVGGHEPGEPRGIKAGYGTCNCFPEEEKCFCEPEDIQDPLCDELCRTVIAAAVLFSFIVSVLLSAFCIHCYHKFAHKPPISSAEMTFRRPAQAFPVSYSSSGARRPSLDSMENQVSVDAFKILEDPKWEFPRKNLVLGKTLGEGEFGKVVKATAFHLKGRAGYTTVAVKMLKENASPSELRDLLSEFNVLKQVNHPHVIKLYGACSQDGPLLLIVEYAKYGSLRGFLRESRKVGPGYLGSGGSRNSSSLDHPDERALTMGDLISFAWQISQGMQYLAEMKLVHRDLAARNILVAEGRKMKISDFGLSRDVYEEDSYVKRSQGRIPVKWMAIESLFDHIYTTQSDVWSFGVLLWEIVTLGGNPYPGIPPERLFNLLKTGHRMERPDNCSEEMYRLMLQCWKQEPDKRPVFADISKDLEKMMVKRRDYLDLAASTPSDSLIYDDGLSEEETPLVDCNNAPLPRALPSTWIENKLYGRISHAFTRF

vascular endothelial growth receptor 2 (VEGFR2), sequence (P35968 20-1356): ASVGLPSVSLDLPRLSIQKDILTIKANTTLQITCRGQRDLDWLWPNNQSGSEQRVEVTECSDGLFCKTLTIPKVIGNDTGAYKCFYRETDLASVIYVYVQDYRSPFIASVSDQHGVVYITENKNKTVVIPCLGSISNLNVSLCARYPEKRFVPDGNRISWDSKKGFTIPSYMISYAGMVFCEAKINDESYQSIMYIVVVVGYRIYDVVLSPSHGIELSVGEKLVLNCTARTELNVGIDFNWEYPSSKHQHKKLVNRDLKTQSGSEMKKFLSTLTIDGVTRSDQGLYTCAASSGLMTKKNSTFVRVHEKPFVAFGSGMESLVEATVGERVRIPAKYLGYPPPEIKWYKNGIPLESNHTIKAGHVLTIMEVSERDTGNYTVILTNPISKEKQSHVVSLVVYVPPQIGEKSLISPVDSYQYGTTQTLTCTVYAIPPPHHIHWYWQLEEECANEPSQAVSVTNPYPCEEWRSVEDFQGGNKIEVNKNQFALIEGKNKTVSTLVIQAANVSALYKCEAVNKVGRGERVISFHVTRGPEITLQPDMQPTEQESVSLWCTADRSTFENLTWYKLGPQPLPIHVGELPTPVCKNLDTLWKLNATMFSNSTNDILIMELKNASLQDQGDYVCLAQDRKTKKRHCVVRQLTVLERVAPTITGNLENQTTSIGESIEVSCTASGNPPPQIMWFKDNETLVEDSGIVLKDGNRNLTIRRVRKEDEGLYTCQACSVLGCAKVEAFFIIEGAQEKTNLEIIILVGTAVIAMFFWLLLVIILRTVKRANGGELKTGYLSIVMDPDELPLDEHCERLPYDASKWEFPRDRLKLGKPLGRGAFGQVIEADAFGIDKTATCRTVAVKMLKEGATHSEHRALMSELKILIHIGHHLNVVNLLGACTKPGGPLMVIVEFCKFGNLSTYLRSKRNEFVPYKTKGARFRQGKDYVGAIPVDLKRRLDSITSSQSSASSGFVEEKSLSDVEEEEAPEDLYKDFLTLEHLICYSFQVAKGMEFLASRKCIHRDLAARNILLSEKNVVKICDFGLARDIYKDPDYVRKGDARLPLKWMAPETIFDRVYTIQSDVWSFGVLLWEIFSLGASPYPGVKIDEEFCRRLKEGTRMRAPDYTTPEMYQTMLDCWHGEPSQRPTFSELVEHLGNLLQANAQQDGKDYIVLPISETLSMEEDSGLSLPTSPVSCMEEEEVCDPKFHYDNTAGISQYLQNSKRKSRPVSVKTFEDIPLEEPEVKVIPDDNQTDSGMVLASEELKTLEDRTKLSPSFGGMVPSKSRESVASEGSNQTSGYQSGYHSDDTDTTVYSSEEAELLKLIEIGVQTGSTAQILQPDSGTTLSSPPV

As for `COc1cc2c(Oc3ccc4[nH]c(C)cc4c3F)ncnc2cc1OCCCN1CCC(CO)(CO)CC1` [Compound 1, 7-(3-[4,4-bis(hydroxymethyl)-1-piperidinyl]propoxy)-4-(4-fluoro-2-methyl-1H-indol-5-yloxy)-6-methoxyquinazoline], the Kd (in general, the constant that tells how readily two partners part at equilibrium) in assay [1] turned out to be 0.38 nM; on RET9, 3.9 nM.
